The subject of one assay is DAPI. Kind of assay: TAG lipid buildup inhibition with viability readout – cell-based, panel, Nile Red and DAPI fluorescence, H9c2, dose response (AID 651630).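 Also: cells exposed to compound overnight before fixation and staining.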 The note with it: H9c2 cells, DAPI nuclear fluorescence (cytotoxicity counter-readout), oleic acid.
In the next assay the test system is TAG. The assay is described as above. As to conditions: H9c2 cells, Nile Red TAG fluorescence, oleic acid.

Active and inactive are the calls of the source.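 The calls were made as follows: active = lipid-stain IC50 at or below a set limit, with nuclear-stain toxicity IC50 at least five times higher; inactive = the rest.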

`CN(C)CCCN1c2ccccc2Sc2ccccc21`: the IC50 cytotoxicity (DAPI nuclear signal decrease) is > 25 µM (inactive) in the assay with DAPI (mean of runs), > 25 µM in the assay with DAPI (run 1) and > 25 µM in the assay on DAPI (run 2). Besides, the results for the IC50 in the assay on TAG (mean of runs), with TAG (run 1) and with TAG (run 2) were > 25 µM (inactive), > 25 µM and > 25 µM, respectively.

On to `CCC(C)Nc1nc(-c2cccc(OC)c2O)nc2ccccc12` (stereo not drawn), for which the IC50 cytotoxicity (DAPI nuclear signal decrease) with DAPI (mean of runs) was > 25 µM (inactive); in the assay with DAPI (run 1), > 25 µM; in the assay on DAPI (run 2) it was > 25 µM. Further, the results for the IC50 in the assay with TAG (mean of runs), in the assay with TAG (run 1) and in the assay with TAG (run 2) were > 25 µM (inactive), > 25 µM and > 25 µM, respectively.

Turning to `COc1cc(-c2cc3nc(NCCOc4ccccc4)ccn3n2)cc(OC)c1OC`, the values for the IC50 cytotoxicity (DAPI nuclear signal decrease) with DAPI (mean of runs), with DAPI (run 1) and in the assay on DAPI (run 2) were > 25 µM (inactive), > 25 µM and > 25 µM, respectively. Also, the IC50 (as a rule, the concentration that gives 50% inhibition) with TAG (mean of runs) is 18.9 µM (inactive); in the assay on TAG (run 1), 16.7 µM; in the assay with TAG (run 2) it was 21.2 µM.

As to `CCCCCCCCn1c(N2CCN(c3cccc(Cl)c3)CC2)nc2c1c(=O)[nH]c(=O)n2C`, the IC50 cytotoxicity (DAPI nuclear signal decrease) in the assay with DAPI (mean of runs) is > 25 µM (inactive); in the assay on DAPI (run 1), > 25 µM; in the assay with DAPI (run 2), > 25 µM. The IC50 in the assay with TAG (mean of runs) was > 25 µM (inactive); in the assay on TAG (run 1), > 25 µM; with TAG (run 2), > 25 µM.

Take `O=C(c1ccoc1)N1CCN(c2cc(-c3cccc(F)c3)nc3cc(-c4cccc(Cl)c4)nn23)CC1`: the IC50 cytotoxicity (DAPI nuclear signal decrease) in the assay with DAPI (mean of runs) is > 25 µM (inactive); in the assay with DAPI (run 1), > 25 µM; with DAPI (run 2), > 25 µM. The results for the IC50 in the assay with TAG (mean of runs), in the assay on TAG (run 1) and in the assay on TAG (run 2) were > 25 µM (inactive), > 25 µM and > 25 µM, respectively.

Consider `CCCCCc1cc(=O)oc2c(C(CCN3CCN(c4ccccc4)CC3)c3ccc4c(c3)OCO4)c(OC)cc(OC)c12` (stereo not drawn), for which the IC50 cytotoxicity (DAPI nuclear signal decrease) in the assay on DAPI (mean of runs) was > 25 µM (inactive); in the assay with DAPI (run 1), > 25 µM; in the assay with DAPI (run 2), > 25 µM. The IC50 in the assay with TAG (mean of runs) is 8.04 µM; with TAG (run 1) it was 8.42 µM; in the assay with TAG (run 2), 7.65 µM.

For the compound `CC(C)C[C@H]1CNC(=S)N1CC1CCCN1C[C@H](CC(C)C)N1C[C@H](CC(C)C)N(CCc2ccccc2)C1=S` (stereo partly drawn), the IC50 cytotoxicity (DAPI nuclear signal decrease) in the assay on DAPI (mean of runs) was > 25 µM (inactive); with DAPI (run 1), > 25 µM; in the assay with DAPI (run 2) it was > 25 µM. The IC50 in the assay with TAG (mean of runs) is 14.4 µM; in the assay on TAG (run 1), 15.3 µM; in the assay with TAG (run 2), 13.4 µM.

As to `COc1ccc(NC(=O)C2(C)Cc3c(-c4cccc(NC(C)=O)c4)ccnc3O2)cn1` (stereo not drawn), the IC50 cytotoxicity (DAPI nuclear signal decrease) with DAPI (mean of runs) is > 25 µM (inactive); with DAPI (run 1) it was > 25 µM; in the assay on DAPI (run 2) it was > 25 µM. For the same compound, the IC50 in the assay with TAG (mean of runs) is > 25 µM (inactive); with TAG (run 1), > 25 µM; in the assay with TAG (run 2), > 25 µM.

In the case of `Cc1cccc(Oc2nc(-c3ccccn3)nc3ccccc23)c1`, the IC50 cytotoxicity (DAPI nuclear signal decrease) in the assay with DAPI (mean of runs) is > 25 µM (inactive); in the assay on DAPI (run 1), > 25 µM; in the assay with DAPI (run 2), > 25 µM. The results for the IC50 with TAG (mean of runs), in the assay on TAG (run 1) and in the assay with TAG (run 2) were > 25 µM (inactive), > 25 µM and > 25 µM, respectively.

For `COc1cc(C#Cc2c(-c3cncn3C)n(C)c3ccc(-c4ccc5[nH]ccc5c4)cc23)cc(OC)c1`, the IC50 cytotoxicity (DAPI nuclear signal decrease) with DAPI (run 1) and in the assay with DAPI (run 2) was > 25 µM each time. The IC50 is 4.19 µM with TAG (mean of runs), 3.78 µM in the assay on TAG (run 1) and 4.6 µM in the assay on TAG (run 2).

Consider `CCCc1cc(C(=O)N/N=C/c2ccc(CC)s2)c2ccccc2n1`, for which the IC50 cytotoxicity (DAPI nuclear signal decrease) with DAPI (mean of runs) is > 25 µM (inactive); with DAPI (run 1) it was > 25 µM; with DAPI (run 2), > 25 µM. Also, the results for the IC50 with TAG (mean of runs), in the assay with TAG (run 1) and with TAG (run 2) were > 25 µM (inactive), > 25 µM and > 25 µM, respectively.

With `COc1ccc(-c2cc(NC=O)c3ncc(-c4cc(OC)c(OC)c(OC)c4)n3c2)c(OC)c1`, the IC50 cytotoxicity (DAPI nuclear signal decrease) was > 25 µM (inactive) in the assay on DAPI (mean of runs), > 25 µM in the assay on DAPI (run 1) and > 25 µM in the assay with DAPI (run 2). Also, the IC50 in the assay with TAG (mean of runs) was > 25 µM (inactive); in the assay with TAG (run 1), > 25 µM; in the assay on TAG (run 2), > 25 µM.

In the case of `O=C(Nc1cc2c3c(c1)C1CCCC1CN3CC1CCCC21)c1ccc([N+](=O)[O-])cc1` (stereo not drawn), the IC50 cytotoxicity (DAPI nuclear signal decrease) was > 25 µM (inactive) in the assay with DAPI (mean of runs), > 25 µM in the assay with DAPI (run 1) and > 25 µM with DAPI (run 2). Also, the IC50 is 12.3 µM in the assay on TAG (mean of runs), 11.3 µM in the assay on TAG (run 1) and 13.2 µM in the assay on TAG (run 2).

Regarding `O=C(OCc1ccc(Br)cc1)c1cc([N+](=O)[O-])ccc1N1CCOCC1`, the IC50 cytotoxicity (DAPI nuclear signal decrease) is > 25 µM (inactive) with DAPI (mean of runs), > 25 µM in the assay with DAPI (run 1) and > 25 µM with DAPI (run 2). The IC50 is > 25 µM (inactive) with TAG (mean of runs), > 25 µM in the assay on TAG (run 1) and > 25 µM with TAG (run 2).

With `O=C(Nc1ccc(-c2csc(Nc3cccc(C(F)(F)F)c3)n2)cc1)c1cccc(C(F)(F)F)c1`, the IC50 cytotoxicity (DAPI nuclear signal decrease) in the assay on DAPI (mean of runs) was > 25 µM (inactive); in the assay with DAPI (run 1), > 25 µM; with DAPI (run 2), > 25 µM. Also, the results for the IC50 with TAG (mean of runs), in the assay on TAG (run 1) and in the assay with TAG (run 2) were 6.44 µM, 5.94 µM and 6.94 µM, respectively.

With `CN(C)C(=O)c1cccc(-c2cnc3c(NC=O)cc(-c4ccc(C(=O)N5CCOCC5)cc4)cn23)c1`, the IC50 cytotoxicity (DAPI nuclear signal decrease) was > 25 µM (inactive) in the assay with DAPI (mean of runs), > 25 µM with DAPI (run 1) and > 25 µM with DAPI (run 2). The IC50 in the assay on TAG (mean of runs) was 8.71 µM; in the assay with TAG (run 1), 3.47 µM; in the assay with TAG (run 2), 13.9 µM.

Take `COc1ccc(NC(=O)c2nc(C)c(C3(C)CC(c4ccccc4)=NO3)s2)cc1` (stereo not drawn): the IC50 cytotoxicity (DAPI nuclear signal decrease) was > 25 µM (inactive) in the assay with DAPI (mean of runs), > 25 µM in the assay on DAPI (run 1) and > 25 µM in the assay with DAPI (run 2). In addition, the values for the IC50 in the assay with TAG (mean of runs), in the assay on TAG (run 1) and in the assay on TAG (run 2) were 7.56 µM, 4.88 µM and 10.2 µM, respectively.

On to `CCC(=O)Nc1nonc1-c1nc2ccccc2n1Cc1cccc2ccccc12`, for which the IC50 cytotoxicity (DAPI nuclear signal decrease) is > 25 µM (inactive) in the assay on DAPI (mean of runs), > 25 µM with DAPI (run 1) and > 25 µM in the assay on DAPI (run 2). For the same compound, the results for the IC50 with TAG (mean of runs), with TAG (run 1) and with TAG (run 2) were > 25 µM (inactive), > 25 µM and > 25 µM, respectively.

As for `Nc1ccc(C#Cc2c(-c3ccsc3)oc3ccc(N4CCOCC4)cc23)cc1`, the IC50 cytotoxicity (DAPI nuclear signal decrease) is > 25 µM (inactive) in the assay on DAPI (mean of runs), > 25 µM with DAPI (run 1) and > 25 µM in the assay on DAPI (run 2). Besides, the IC50 in the assay on TAG (mean of runs) was 11.4 µM; in the assay with TAG (run 1), 10.8 µM; with TAG (run 2), 11.9 µM.

Consider `O=C1c2ccccc2C(=O)c2c1cccc2N1CCN(C/C=C/c2ccccc2)CC1`, for which the IC50 cytotoxicity (DAPI nuclear signal decrease) in the assay on DAPI (mean of runs) is > 25 µM (inactive); with DAPI (run 1), > 25 µM; with DAPI (run 2) it was > 25 µM. In addition, the IC50 with TAG (run 1) is 23.1 µM; with TAG (run 2), > 25 µM.

Turning to `COc1ccc(C(=O)Nc2sc3c(c2C(=O)NCc2ccco2)CCCC3)cc1OC`, the IC50 cytotoxicity (DAPI nuclear signal decrease) is > 25 µM (inactive) with DAPI (mean of runs), > 25 µM in the assay on DAPI (run 1) and > 25 µM in the assay with DAPI (run 2). In addition, the results for the IC50 in the assay with TAG (mean of runs), in the assay on TAG (run 1) and in the assay with TAG (run 2) were > 25 µM (inactive), > 25 µM and > 25 µM, respectively.

With `CCOc1cc(CNc2ccc3c(c2)OCCO3)cc(Br)c1OCC`, the IC50 cytotoxicity (DAPI nuclear signal decrease) in the assay on DAPI (mean of runs) is > 25 µM (inactive); in the assay with DAPI (run 1) it was > 25 µM; in the assay on DAPI (run 2), > 25 µM. Also, the values for the IC50 in the assay on TAG (mean of runs), in the assay with TAG (run 1) and in the assay on TAG (run 2) were > 25 µM (inactive), > 25 µM and > 25 µM, respectively.

With `COCCNc1nc(NCc2ccc(NC(C)=O)cc2)c2sc(-c3ccccc3)cc2n1`, the results for the IC50 cytotoxicity (DAPI nuclear signal decrease) in the assay on DAPI (run 1) and with DAPI (run 2) were 19.1 µM and > 25 µM, respectively. Also, the IC50 in the assay on TAG (mean of runs) is > 25 µM (inactive); in the assay with TAG (run 1) it was > 25 µM; with TAG (run 2), > 25 µM.

For `CC(C)C(C)(C#N)NC(=O)CSc1nc2scc(-c3ccco3)c2c(=O)n1-c1ccccc1` (stereo not drawn), the figures for the IC50 cytotoxicity (DAPI nuclear signal decrease) in the assay on DAPI (mean of runs), in the assay on DAPI (run 1) and in the assay with DAPI (run 2) were > 25 µM (inactive), > 25 µM and > 25 µM, respectively. Besides, the IC50 with TAG (mean of runs) was 10.5 µM; in the assay with TAG (run 1), 11.4 µM; with TAG (run 2), 9.69 µM.

On to `CC(C)CN(C#N)c1nc(N2CCOCC2)nc(N2CCOCC2)n1`, for which the IC50 cytotoxicity (DAPI nuclear signal decrease) with DAPI (mean of runs) is > 25 µM (inactive); in the assay with DAPI (run 1), > 25 µM; in the assay on DAPI (run 2), > 25 µM. The IC50 was 20.5 µM (inactive) in the assay on TAG (mean of runs), 19.4 µM in the assay on TAG (run 1) and 21.5 µM in the assay on TAG (run 2).

In the case of `Cc1nn(-c2ccccc2)c2c1CC(=O)Nc1ccccc1-2`, the IC50 cytotoxicity (DAPI nuclear signal decrease) with DAPI (mean of runs) is > 25 µM (inactive); in the assay on DAPI (run 1), > 25 µM; in the assay on DAPI (run 2) it was > 25 µM. Further, the IC50 in the assay with TAG (mean of runs) is 8.97 µM; in the assay with TAG (run 1), 7.74 µM; with TAG (run 2), 10.2 µM.
